According to article PMC9372747, “Genome-wide analysis of UGT gene family identified key gene for the biosynthesis of bioactive flavonol glycosides in Epimedium pubescens Maxim” (Synthetic and Systems Biotechnology, 2022):

Tested on: T1, EpGT60
T1 construct: not anchored to any chromosome
Experiment: UPLC of rhamnosylated product, GraphPad Prism fit
Assay type: biochemical, Epimedium pubescens
Conditions: 4 mM UDP-rhamnose, 1 mM DTT, 50 mM Tris-HCl pH 7.0, 30 °C, 1 h; substrate 100-500 μM

Km: 289 µM
SMILES: CC(C)=CCc1c(O)cc(O)c2c(=O)c(O)c(-c3ccc(O)cc3)oc12 [8-prenylkaempferol]
